Tests used:
Pseudomonas aeruginosa = experiment: USP Antimicrobial Preservatives Effectiveness Test, P. aeruginosa; format: cell-based; details: DDAIP formulation of Example 1
Excerpt: (§1) Thus, in the presence of Pseudomonas aeruginosa, […], Candida albicans, Streptococcus aureus, and Escherichia coli after 7 days of study less than 10 cfu/ml remained, with Aspergillus niger this value was observed after 21 days of study.

Candida albicans = experiment: USP Antimicrobial Preservatives Effectiveness Test, C. albicans; format: cell-based; details: DDAIP formulation of Example 1
Excerpt: as §1

microorganism growth = experiment: Visual microorganism growth testing of formulations; format: cell-based; details: room temperature and refrigerator conditions; test period of 2 months
Description: Additional formulations (such as in the examples that follow) were prepared and submitted to visual microorganism growth testing at room temperature (RT) and refrigerator conditions. The examples given below constitute some typical samples of various formulations prepared and tested.

Streptococcus aureus = experiment: USP Antimicrobial Preservatives Effectiveness Test, S. aureus; format: cell-based; details: DDAIP formulation of Example 1
Excerpt: as §1

Escherichia coli = experiment: USP Antimicrobial Preservatives Effectiveness Test, E. coli; format: cell-based; details: DDAIP formulation of Example 1
Excerpt: as §1

stratum corneum proteins = details: FIG. 1; compared with control; cited from earlier work
Aspergillus niger = experiment: USP Antimicrobial Preservatives Effectiveness Test, A. niger; format: cell-based; details: DDAIP formulation of Example 1
Excerpt: as §1

SMILES: CCCCCCCCCCCCOC(=O)C(C)N(C)C (stereo not shown) [DDAIP, Dodecyl 2-(N,N-dimethylamino)propionate]
- P. aeruginosa (cfu/ml), 7 days (Pseudomonas aeruginosa; 7 days): <10 cfu/ml
- P. aeruginosa (cfu/ml), 14 days (Pseudomonas aeruginosa; 14 days): <10 cfu/ml
- P. aeruginosa (cfu/ml), 21 days (Pseudomonas aeruginosa; 21 days): <10 cfu/ml
- P. aeruginosa (cfu/ml), 28 days (Pseudomonas aeruginosa; 28 days): <10 cfu/ml
- P. aeruginosa (cfu/ml), Time Zero (Pseudomonas aeruginosa; day zero count): 3.55E+05 cfu/ml
- C. albicans (cfu/ml), 7 days (Candida albicans; 7 days): <10 cfu/ml
- C. albicans (cfu/ml), 14 days (Candida albicans; 14 days): <10 cfu/ml
- C. albicans (cfu/ml), Time Zero (Candida albicans; day zero count): 3.45E+05 cfu/ml
- visual microorganism growth (microorganism growth): no growth was observed
- S. aureus (cfu/ml), 7 days (Streptococcus aureus; 7 days): <10 cfu/ml
- S. aureus (cfu/ml), 14 days (Streptococcus aureus; 14 days): <10 cfu/ml
- S. aureus (cfu/ml), 21 days (Streptococcus aureus; 21 days): <10 cfu/ml
- S. aureus (cfu/ml), 28 days (Streptococcus aureus; 28 days): <10 cfu/ml
- S. aureus (cfu/ml), Time Zero (Streptococcus aureus; day zero count): 6.90E+05 cfu/ml
- E. coli (cfu/ml), 7 days (Escherichia coli; 7 days): <1 cfu/ml
- E. coli (cfu/ml), 14 days (Escherichia coli; 14 days): <1 cfu/ml
- E. coli (cfu/ml), Time Zero (Escherichia coli; day zero count): 5.70E+05 cfu/ml
- number of free thiol groups of stratum corneum proteins (effect on protein domain) (stratum corneum proteins): effect on the protein domain
- A. niger (cfu/ml), 7 days (Aspergillus niger; 7 days): 1.40E+03 cfu/ml
- A. niger (cfu/ml), 14 days (Aspergillus niger; 14 days): 3.00E+02 cfu/ml
- A. niger (cfu/ml), Time Zero (Aspergillus niger; day zero count): 3.05E+05 cfu/ml

SMILES: CCO [ethanol, reference compound]
- number of free thiol groups of stratum corneum proteins (effect on protein domain) (stratum corneum proteins): affects protein domain

— patent US20050113274A1, “Hydrocarbyl aminohydrocarbonoates and aminohydrocarbonol hydrocarbonoates as antimicrobial and antiviral agents” (priority 2003, published 2005)
